ChEMBL document CHEMBL3886492, “Aminopyrimidinones as interleukin receptor-associated kinase inhibitors” (2015)

Target: T1, Interleukin-1 receptor-associated kinase 4 (Homo sapiens, UniProt Q9NWZ3)
T1 sequence (Q9NWZ3 whole entry): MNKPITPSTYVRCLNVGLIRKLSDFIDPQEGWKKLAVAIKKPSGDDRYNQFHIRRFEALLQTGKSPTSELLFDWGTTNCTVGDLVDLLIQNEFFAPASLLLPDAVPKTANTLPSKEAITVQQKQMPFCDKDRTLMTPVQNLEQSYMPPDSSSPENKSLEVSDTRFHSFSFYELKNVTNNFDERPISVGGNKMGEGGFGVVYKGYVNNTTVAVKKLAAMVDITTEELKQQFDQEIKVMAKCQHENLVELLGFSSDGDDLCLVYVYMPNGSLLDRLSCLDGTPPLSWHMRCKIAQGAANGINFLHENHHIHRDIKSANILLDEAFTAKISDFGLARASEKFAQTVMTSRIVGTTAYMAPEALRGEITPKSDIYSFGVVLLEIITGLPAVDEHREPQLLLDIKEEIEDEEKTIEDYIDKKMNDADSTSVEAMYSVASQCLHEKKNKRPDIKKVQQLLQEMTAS
Assay: IMAP technology (Molecular Devices): A 20 ul reaction mixture contains 10 mM TriHCl, pH 7.2, 0.5 nM GST tagged IRAK4 (SignalChem), 100 nM fluorescent peptide substrate (RP7030, Molecular Devices), 100 uM ATP, 1 mM DTT, 1 mM MgCl2, and 0.01% Tween 20. The reaction is initiated by the addition of ATP. After incubation for 30 minutes at 25° C., 60 ul of Progressive IMAP Reagent (Molecular Devices) is added to stop the reaction. Change in RP7030's FP is determined by a FP reader (Analyst HT, LJL BioSystems).

## CC1(Nc2nc(N[C@@H]3C[C@H](CO)[C@@H](O)[C@H]3O)c(-c3nc4ccccc4s3)c(=O)[nH]2)CCC1
  IC50: 1690 nM

## Cc1csc(-c2c(N[C@@H]3CCCNC3)nc(N3CCOCC3)[nH]c2=O)n1
  IC50: 554 nM

## Cc1cccc(-c2c(N[C@@H]3C[C@H](CO)[C@@H](O)[C@H]3O)nc(N3CCOCC3)[nH]c2=O)n1
  IC50: 214 nM

## O=c1[nH]c(N2CCc3ccccc3C2)nc(N[C@@H]2C[C@H](CO)[C@@H](O)[C@H]2O)c1-c1nc2ccccc2s1
  IC50: 27.5 nM

## CC(=O)N1CCC(c2nc(N[C@@H]3CCCNC3)c(-c3nc4ccccc4s3)c(=O)[nH]2)CC1
  IC50: 450 nM

## CC1(Nc2nc(N3CCOCC3)[nH]c(=O)c2-c2ccc3ccccc3n2)CCCNC1 (stereo unspecified)
  IC50: 130 nM

## CS(=O)(=O)N1CCN(c2nc(N[C@@H]3CCCNC3)c(-c3nc4c(C5CC5)nccc4s3)c(=O)[nH]2)CC1
  IC50: 6.9 nM

## COC(=O)N1CCC(c2nc(N[C@@H]3CCCNC3)c(-c3nc4ccccc4s3)c(=O)[nH]2)CC1
  IC50: 270 nM

## N[C@H]1CCCC[C@H]1Nc1cccc2sc(-c3c(N[C@@H]4CCCNC4)nc(N4CCOCC4)[nH]c3=O)nc12
  IC50: 2 nM

## CN1CCC(c2nc(N[C@@H]3CCCNC3)c(-c3nc4ccccc4s3)c(=O)[nH]2)CC1
  IC50: 690 nM

## Nc1ccc2c(c1)CN(c1nc(N[C@@H]3CCCNC3)c(-c3nc4ccccc4s3)c(=O)[nH]1)CC2
  IC50: 49 nM

## O=c1[nH]c(C2CCOCC2)nc(N[C@@H]2CCCNC2)c1-c1nc2ccccc2s1
  IC50: 380 nM

## N[C@H]1CCCC[C@H]1Nc1cccc2sc(-c3c(N[C@@H]4CCCNC4)nc(N4CCOCC4)[nH]c3=O)nc12 (racemic)
  IC50: 70 nM

## O=c1[nH]c(N2CCC3(CC2)CNC3)nc(N[C@@H]2CCCNC2)c1-c1nc2ccccc2s1
  IC50: 40 nM

## CC(C)(C)OC(=O)N1CC2(CCN(c3nc(N[C@@H]4CCCNC4)c(-c4nc5ccccc5s4)c(=O)[nH]3)CC2)C1
  IC50: 27 nM

## O=c1[nH]c(N2CCc3ccccc3C2)nc(N[C@@H]2CCCNC2)c1-c1nc(-c2ccc(F)cc2)cs1
  IC50: 57 nM
